Calls of active or inactive are those of the source. The rule behind the calls is not given here.

The first test can be described thus: reduced viability of parasite-Hsp90 expressing yeast – ATP luminescence, 48 h, cherry-picked samples, anti-malarial Hsp90 inhibitor project, dose response (AID 540268).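 For activity change, negative = inhibition: 0% = neutral control wells and -100% = positive control wells.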 Particulars: yeast expressing the parasite Hsp90, ATP luminescence.
In the case of `O=[N+]([O-])c1ccc(Sc2nc3ccccc3o2)c([N+](=O)[O-])c1`, the half-maximal activity concentration (AC50) (usually the concentration giving half of the maximal activity seen) is 3.56 µM. On the same count and under the same terms, next, `Cc1ccc(O)c(-c2cc(-c3cccc(F)c3)n[nH]2)c1`: 17.2 µM; `COc1ccc(NC(=O)c2sc3ncnc(N4CCN(c5ccccn5)CC4)c3c2C)cc1Cl`: 3.46 µM; `Cc1ccc(/C=[N+](\[O-])c2ccc(N(C)C)cc2)c2nsnc12`: 8.1 µM. For `O=S1(=O)Nc2c(ccc3cccnc23)-c2ccccc21`, the AC50 is 0.894 µM. On the same count and under the same terms, the result for `O=C1/C(=C\c2ccc([N+](=O)[O-])cc2)CS(=O)(=O)C/C1=C/c1ccc([N+](=O)[O-])cc1` reads 0.337 µM; that for `Nc1ccccc1C#CC(=O)c1ccccc1`, 7.65 µM; that for `O=C(OCc1ccccc1)c1ccc(NCc2cc(O)ccc2O)cc1`, 5.09 µM. The same measure, in the same setting: next, `Cc1ccc2c(c1C)-c1c(ccc(C)c1C)C(=O)C2=O`: 2.67 µM; `Cc1cccc(N=C2c3cc([N+](=O)[O-])ccc3-c3c2cc([N+](=O)[O-])cc3[N+](=O)[O-])c1`: 9.02 µM.

Consider `Clc1ccc(CCC(Cn2ccnc2)Sc2c(Cl)cccc2Cl)cc1` (stereo not drawn), for which the concentration at half-maximal activity (AC50) was below 0.195 µM.

As to `Cc1ccc(NC(=O)c2cc(N3C(=O)C=CC3=O)ccc2N2CCOCC2)cc1Cl`, the AC50 is below 0.195 µM. Same read-out and setting: the result for `COc1cc(C#Cc2c(-c3cncn3C)n(C)c3ccc(-c4ccc(OC)nc4)cc23)cc(OC)c1` reads 4.74 µM; that for `C=C1C(=O)C23CCC4C(C)(C(=O)OC)CCCC4(C)C2CCC1(O)C3` (stereo not drawn), 1.54 µM; that for `CCOC(=O)c1ccc(N2C(=O)CC(N3CCC(Nc4ccc(F)cc4)CC3)C2=O)cc1` (stereo not drawn), 4.58 µM. Still for that read-out and setting: the result for `Clc1ccccc1C(c1ccccc1)(c1ccccc1)n1ccnc1` reads below 0.195 µM; that for `Cc1ccc(N2C(=O)C3C4C=CC(CNC(=S)Nc5ccc(Cl)cc5)(O4)C3C2=O)cc1` (stereo not drawn), 11.9 µM; that for `CCOC(=O)c1c(C)oc2c1c(C(c1cccnc1)N1CCOCC1)c(O)c1ccccc12` (stereo not drawn), 5.35 µM.

Turning to `O=C(N/N=C/c1cc(Cl)c(O)c(Cl)c1)c1cc2c(ccc3ccccc32)o1`, the AC50 is 3.54 µM. On the same count and under the same terms, next, `CN(O)C(=S)c1ccccc1`: 4.38 µM. The same measure, in the same setting: next, `CCOC(=O)C1=C(CC)Nc2ccccc2N=C1NC(=O)Nc1ccc(Cl)c(Cl)c1`: 1.43 µM. On the same count and under the same terms, next, `CN1CCN(C(=O)c2cc(COc3c(F)cccc3F)on2)CC1c1ccccc1` (stereo not drawn): 0.43 µM; `O=C(/C=C/c1ccc([N+](=O)[O-])cc1)c1ccccc(=O)c1O`: 1.04 µM; `Cc1ccc(C(=O)Sc2cccccc2=O)cc1`: 6.77 µM. In the case of `O=C(Nc1nc(-c2cccs2)cs1)c1ccc([N+](=O)[O-])o1`, the concentration at half-maximal activity (AC50) was 5.69 µM.

As for `O=C(O)c1cn(-c2ccc(N3CCCC3)c(F)c2)c2c(F)c(F)c(F)cc2c1=O`, the AC50 was 4.36 µM. In the case of `COc1ccc(C2=CC3=C(Br)C(=O)C(C)(O)C(=O)C3=CO2)cc1` (stereo not drawn), the AC50 was 1.73 µM. Same read-out and setting: the result for `Cc1cc(C)c2c(N=NN3CCOCC3)[nH]nc2n1` reads 7.65 µM; that for `CCCCCCCCCCCCCCCC[n+]1cccc2ccccc21`, 3.05 µM. On the same count and under the same terms, the result for `Cc1[nH]oc(=O)c1N=Nc1c(Cl)cccc1Cl` reads 24.9 µM. The same measure, in the same setting: the result for `O=C1C=CC(=O)N1c1ccc(Nc2ccccc2)cc1` reads below 0.195 µM; that for `O=C(OCn1ncc(Br)c(Br)c1=O)c1ccccc1Cl`, 4.29 µM. `O=C(Nc1cc(Cl)ccc1-n1cncn1)c1ccc([N+](=O)[O-])s1`: the concentration at half-maximal activity (AC50) is 4.2 µM. Same read-out and setting: the result for `Oc1ccc(Br)cc1/C=N/Nc1ccccn1` reads 2.67 µM. On the same count and under the same terms, the result for `COC(=O)[C@@H]1[C@@H](C#N)C2(c3ccccc3-c3ccccc32)N(c2ccc(Cl)cc2)N1C#N` reads 2.81 µM. With `Cc1[nH]n(-c2ccc([N+](=O)[O-])cc2)c(=O)c1C=NCCN1CCN(C(=O)c2cccc(F)c2)CC1`, the AC50 was 5.83 µM. Still for that read-out and setting: the result for `O=C(Nc1cccc(C(F)(F)F)c1)Oc1ccc(Cl)c2cccnc12` reads 4.93 µM; that for `CCc1ccc(-c2cc(C(=O)N3N=C(C(F)F)CC3(O)C(F)F)c3ccccc3n2)cc1` (stereo not drawn), 3.24 µM.

In the case of `CCOC(=O)c1ccc(N2C(=O)CC(N3CCC(C(=O)OCC)CC3)C2=O)cc1` (stereo not drawn), the concentration at half-maximal activity (AC50) is below 0.195 µM.

`O=C(/C=C/c1ccc(Cl)c([N+](=O)[O-])c1)c1cccnc1`: the concentration at half-maximal activity (AC50) is 0.806 µM.

On to `C=CC(C)(C)c1c(O)c(CC=C(C)C)c(O)c2c(=O)c3ccc(O)c(O)c3oc12`, for which the concentration at half-maximal activity (AC50) is 6.76 µM.

Regarding `O=C(CCc1ccccc1)NC(c1cccs1)c1cc(Cl)c2cccnc2c1O` (stereo not drawn), the half-maximal activity concentration (AC50) is 15.5 µM. Consider `COc1ccccc1OCCNC(=O)c1ccc(Br)cc1`, for which the half-maximal activity concentration (AC50) is below 0.195 µM. As to `O=[N+]([O-])/C=C/c1cn(Cc2ccc(F)cc2)c2ccccc12`, the concentration at half-maximal activity (AC50) is 5.61 µM.

For `Cc1ccc2nc(-c3cccc(NS(C)(=O)=O)c3)cc(-c3ccccc3)c2c1`, the concentration at half-maximal activity (AC50) is 9.6 µM. On the same count and under the same terms, the result for `CCOC(=O)c1ccc(N2C(=O)CC(N(C)CCc3ccc(OC)c(OC)c3)C2=O)cc1` (stereo not drawn) reads 3.14 µM; that for `COc1ccc(OC)c(N2C(=O)NC(=O)/C(=C/c3ccc([N+](=O)[O-])s3)C2=O)c1`, 4.26 µM. As to `COc1ccc(NC(=O)c2cc([N+](=O)[O-])ccc2O)cc1`, the AC50 is 5.24 µM. Same read-out and setting: next, `CC(C)(C)C(=O)NC(=S)NNC(=O)c1sc2ccccc2c1Cl`: 7.72 µM; `COc1cc2cc(C(=O)N3CC(COS(C)(=O)=O)c4ccc(O)cc43)[nH]c2c(OC)c1OC` (stereo not drawn): 1.55 µM; `N#C/C(=C\c1cccc(Oc2ccccc2)c1)C(=O)N1CCOCC1`: 8.86 µM.

`C=CC(n1cncn1)C(O)(c1ccccc1)c1ccccc1` (stereo not drawn): the concentration at half-maximal activity (AC50) is 1.03 µM. With `Cc1sc2ncnc(N/N=C/c3ccccc3O)c2c1C`, the half-maximal activity concentration (AC50) is 4.4 µM. The same measure, in the same setting: next, `O=C1C=CC(=O)N1CCCCCCCCCCN1C(=O)C=CC1=O`: 0.837 µM; `CC1CCCCC1NC(=O)/C(C#N)=C/c1ccccc1F` (stereo not drawn): 0.87 µM. With `COc1cccc2c1C(=O)c1c(O)c3c(c(O)c1C2=O)CC(O)(C(=O)CO)CC3OC1CC(N(C)C)C(O)C(C)O1` (stereo not drawn), the AC50 is 1.09 µM.

Turning to `COC(=O)c1cc(=O)n(-c2ccc(F)cc2)c(=Nc2ccc(F)cc2)s1`, the AC50 was 13.9 µM.

Take `O=C(N/N=C/c1c(O)ccc2ccccc12)c1cccc(C(F)(F)F)c1`: the AC50 was 2.86 µM. Still for that read-out and setting: next, `CC(C)(C)c1cc(-c2nc(N)nc(N)n2)c(O)c(C(C)(C)C)c1`: 15.1 µM; `O=C1C=CC(=O)N1CCNc1ncc(C(F)(F)F)cc1Cl`: 0.674 µM; `Oc1ccc2ccccc2c1N=Nc1nccs1`: 0.63 µM. On the same count and under the same terms, the result for `COc1ccc(/C=C/C(=O)NC(=S)NNC(=O)c2cnccn2)cc1` reads 0.854 µM.

Staying with this test, now noted: yeast expressing the parasite Hsp90, ATP luminescence, at 26 µM (top of the series).
`Cc1cccc(NC(=S)N/N=C/c2ccc([N+](=O)[O-])s2)c1`: the activity change, negative = inhibition was -14.3% (inactive).

In the case of `O=C1C(=C(I)I)c2ccccc2-c2ccccc21`, the activity change, negative = inhibition was 26.6% (inactive).

With `CC1Oc2cc3oc4c(O)c(O)ccc4c(=O)c3c(O)c2C1(C)C` (stereo not drawn), the activity change, negative = inhibition is -0.538% (inactive). Same read-out and setting: next, `CC(C)=CCc1c(O)ccc(C2COc3c(CC=C(C)C)c(O)cc(O)c3C2=O)c1O` (stereo not drawn): -110% (inactive). Still for that read-out and setting: the result for `COc1ccc(C(=O)Nc2cc(C(=O)c3ccccc3)c(C)oc2=O)cc1` reads 36.8% (inactive); that for `CCOC(=O)c1cc([N+](=O)[O-])cc([N+](=O)[O-])c1Sc1ncnc2nc[nH]c12`, -6.96% (inactive).

Values taken from PubChem BioAssay AID540268 (Broad Institute, 2011).
